Legend:
Type in all cases: functional
Details in all cases: read-out: Activity
[1] = tested on: HL-60(TB); assay: Growth inhibition of human HL-60(TB) cells assessed as cell growth at 10 uM incubated for 48 hrs by sulforhodamine B assay relative to control
[2] = tested on: K562; assay: Growth inhibition of human K562 cells assessed as cell growth at 10 uM incubated for 48 hrs by sulforhodamine B assay relative to control
[3] = tested on: MOLT-4; assay: Growth inhibition of human MOLT-4 cells assessed as cell growth at 10 uM incubated for 48 hrs by sulforhodamine B assay relative to control
[4] = tested on: RPMI-8226; assay: Growth inhibition of human RPMI-8226 cells assessed as cell growth at 10 uM incubated for 48 hrs by sulforhodamine B assay relative to control
[5] = tested on: SR; assay: Growth inhibition of human SR cells assessed as cell growth at 10 uM incubated for 48 hrs by sulforhodamine B assay relative to control
[6] = tested on: A549; assay: Growth inhibition of human A549/ATCC cells assessed as cell growth at 10 uM incubated for 48 hrs by sulforhodamine B assay relative to control
[7] = tested on: EKVX; assay: Growth inhibition of human EKVX cells assessed as cell growth at 10 uM incubated for 48 hrs by sulforhodamine B assay relative to control
[8] = tested on: HOP-62; assay: Growth inhibition of human HOP-62 cells assessed as cell growth at 10 uM incubated for 48 hrs by sulforhodamine B assay relative to control
[9] = tested on: NCI-H226; assay: Growth inhibition of human NCI-H226 cells assessed as cell growth at 10 uM incubated for 48 hrs by sulforhodamine B assay relative to control
[10] = tested on: NCI-H23; assay: Growth inhibition of human NCI-H23 cells assessed as cell growth at 10 uM incubated for 48 hrs by sulforhodamine B assay relative to control
[11] = tested on: NCI-H322M; assay: Growth inhibition of human NCI-H322M cells assessed as cell growth at 10 uM incubated for 48 hrs by sulforhodamine B assay relative to control
[12] = tested on: NCI-H460; assay: Growth inhibition of human NCI-H460 cells assessed as cell growth at 10 uM incubated for 48 hrs by sulforhodamine B assay relative to control
[13] = tested on: NCI-H522; assay: Growth inhibition of human NCI-H522 cells assessed as cell growth at 10 uM incubated for 48 hrs by sulforhodamine B assay relative to control
[14] = tested on: HCC 2998; assay: Growth inhibition of human HCC 2998 cells assessed as cell growth at 10 uM incubated for 48 hrs by sulforhodamine B assay relative to control
[15] = tested on: HCT-116; assay: Growth inhibition of human HCT-116 cells assessed as cell growth at 10 uM incubated for 48 hrs by sulforhodamine B assay relative to control
[16] = tested on: HCT-15; assay: Growth inhibition of human HCT-15 cells assessed as cell growth at 10 uM incubated for 48 hrs by sulforhodamine B assay relative to control
[17] = tested on: HT-29; assay: Growth inhibition of human HT-29 cells assessed as cell growth at 10 uM incubated for 48 hrs by sulforhodamine B assay relative to control
[18] = tested on: KM12; assay: Growth inhibition of human KM12 cells assessed as cell growth at 10 uM incubated for 48 hrs by sulforhodamine B assay relative to control
[19] = tested on: SF-268; assay: Growth inhibition of human SF-268 cells assessed as cell growth at 10 uM incubated for 48 hrs by sulforhodamine B assay relative to control
[20] = tested on: SNB-19; assay: Growth inhibition of human SNB-19 cells assessed as cell growth at 10 uM incubated for 48 hrs by sulforhodamine B assay relative to control
[21] = tested on: U-251; assay: Growth inhibition of human U-251 cells assessed as cell growth at 10 uM incubated for 48 hrs by sulforhodamine B assay relative to control
[22] = tested on: Malme-3M; assay: Growth inhibition of human Malme-3M cells assessed as cell growth at 10 uM incubated for 48 hrs by sulforhodamine B assay relative to control
[23] = tested on: M14; assay: Growth inhibition of human M14 cells assessed as cell growth at 10 uM incubated for 48 hrs by sulforhodamine B assay relative to control
[24] = tested on: MDA-MB-435; assay: Growth inhibition of human MDA-MB-435 cells assessed as cell growth at 10 uM incubated for 48 hrs by sulforhodamine B assay relative to control
[25] = tested on: SK-MEL-2; assay: Growth inhibition of human SK-MEL-2 cells assessed as cell growth at 10 uM incubated for 48 hrs by sulforhodamine B assay relative to control
[26] = tested on: UACC-62; assay: Growth inhibition of human UACC-62 cells assessed as cell growth at 10 uM incubated for 48 hrs by sulforhodamine B assay relative to control
[27] = tested on: IGROV-1; assay: Growth inhibition of human IGROV-1 cells assessed as cell growth at 10 uM incubated for 48 hrs by sulforhodamine B assay relative to control
[28] = tested on: OVCAR-3; assay: Growth inhibition of human OVCAR-3 cells assessed as cell growth at 10 uM incubated for 48 hrs by sulforhodamine B assay relative to control
[29] = tested on: OVCAR-5; assay: Growth inhibition of human OVCAR-5 cells assessed as cell growth at 10 uM incubated for 48 hrs by sulforhodamine B assay relative to control
[30] = tested on: OVCAR-8; assay: Growth inhibition of human OVCAR-8 cells assessed as cell growth at 10 uM incubated for 48 hrs by sulforhodamine B assay relative to control
[31] = tested on: ACHN; assay: Growth inhibition of human ACHN cells assessed as cell growth at 10 uM incubated for 48 hrs by sulforhodamine B assay relative to control
[32] = tested on: CAKI-1; assay: Growth inhibition of human CAKI-1 cells assessed as cell growth at 10 uM incubated for 48 hrs by sulforhodamine B assay relative to control
[33] = tested on: RXF 393; assay: Growth inhibition of human RXF 393 cells assessed as cell growth at 10 uM incubated for 48 hrs by sulforhodamine B assay relative to control
[34] = tested on: SN12C; assay: Growth inhibition of human SN12C cells assessed as cell growth at 10 uM incubated for 48 hrs by sulforhodamine B assay relative to control
[35] = tested on: TK-10; assay: Growth inhibition of human TK-10 cells assessed as cell growth at 10 uM incubated for 48 hrs by sulforhodamine B assay relative to control
[36] = tested on: UO-31; assay: Growth inhibition of human UO-31 cells assessed as cell growth at 10 uM incubated for 48 hrs by sulforhodamine B assay relative to control
[37] = tested on: MCF7; assay: Growth inhibition of human MCF7 cells assessed as cell growth at 10 uM incubated for 48 hrs by sulforhodamine B assay relative to control
[38] = tested on: MDA-MB-231; assay: Growth inhibition of human MDA-MB-231 cells assessed as cell growth at 10 uM incubated for 48 hrs by sulforhodamine B assay relative to control
[39] = tested on: BT-549; assay: Growth inhibition of human BT-549 cells assessed as cell growth at 10 uM incubated for 48 hrs by sulforhodamine B assay relative to control
[40] = tested on: T47D; assay: Growth inhibition of human T47D cells assessed as cell growth at 10 uM incubated for 48 hrs by sulforhodamine B assay relative to control

Compound | growth at 10 µM [1] [%] | growth at 10 µM [3] [%] | growth at 10 µM [4] [%] | growth at 10 µM [6] [%] | growth at 10 µM [7] [%] | growth at 10 µM [8] [%] | growth at 10 µM [9] [%] | growth at 10 µM [10] [%] | growth at 10 µM [11] [%] | growth at 10 µM [12] [%] | growth at 10 µM [13] [%] | growth at 10 µM [14] [%] | growth at 10 µM [15] [%] | growth at 10 µM [16] [%] | growth at 10 µM [17] [%] | growth at 10 µM [18] [%] | growth at 10 µM [19] [%] | growth at 10 µM [20] [%] | growth at 10 µM [21] [%] | growth at 10 µM [22] [%] | other results
CC(=O)Nc1cccc(NC(=O)c2ccc(C(=O)Nc3cc(CO)cc(NC(C)=O)c3)cc2)c1 | 96.9 | 92.7 | 92 | 108 | 112 | 106 | 97.1 | 105 | 115 | 112 | 89.1 | 102 | 105 | 104 | 109 | 111 | 103 | 112 | 111 | 107 | growth at 10 µM [2]: 104%; growth at 10 µM [5]: 104%; growth at 10 µM [23]: 101%; growth at 10 µM [24]: 105%; growth at 10 µM [25]: 88.1%; growth at 10 µM [26]: 101%; growth at 10 µM [27]: 110%; growth at 10 µM [28]: 126%; growth at 10 µM [29]: 108%; growth at 10 µM [30]: 106%; growth at 10 µM [31]: 106%; growth at 10 µM [32]: 111%; growth at 10 µM [33]: 106%; growth at 10 µM [34]: 106%; growth at 10 µM [35]: 98.8%; growth at 10 µM [36]: 100%; growth at 10 µM [37]: 93.3%; growth at 10 µM [38]: 110%; growth at 10 µM [39]: 116%; growth at 10 µM [40]: 86.2%
CC(=O)Nc1cc(CO)cc(NC(=O)c2ccc(C(=O)Nc3cc(CO)cc(NC(C)=O)c3)cc2)c1 | 107 | 101 | 94.5 | 108 | 115 | 102 | 94.9 | 103 | 103 | 107 | 94.1 | 99.6 | 98.6 | 104 | 107 | 136 | 115 | 102 | 112 | 113 | growth at 10 µM [2]: 106%; growth at 10 µM [5]: 106%; growth at 10 µM [23]: 104%; growth at 10 µM [24]: 102%; growth at 10 µM [25]: 93.3%; growth at 10 µM [26]: 103%; growth at 10 µM [27]: 103%; growth at 10 µM [28]: 139%; growth at 10 µM [29]: 106%; growth at 10 µM [30]: 107%; growth at 10 µM [31]: 109%; growth at 10 µM [32]: 117%; growth at 10 µM [33]: 103%; growth at 10 µM [34]: 97.4%; growth at 10 µM [35]: 103%; growth at 10 µM [36]: 97.1%; growth at 10 µM [37]: 97.4%; growth at 10 µM [38]: 104%; growth at 10 µM [39]: 99.5%; growth at 10 µM [40]: 92%
CCN(CC)CC(=O)Nc1ccc(C(=O)Nc2cc(CO)cc(NC(C)=O)c2)cc1 | 107 | 120 | 126 | 95.7 | 104 | 101 | 95.8 | 104 | 105 | 109 | 105 | 98.6 | 109 | 100 | 110 | 107 | 107 | 98 | 108 | 103 | growth at 10 µM [23]: 109%; growth at 10 µM [24]: 96.3%; growth at 10 µM [25]: 107%; growth at 10 µM [26]: 97%; growth at 10 µM [27]: 129%; growth at 10 µM [28]: 116%; growth at 10 µM [29]: 107%; growth at 10 µM [30]: 107%; growth at 10 µM [31]: 108%; growth at 10 µM [32]: 106%; growth at 10 µM [33]: 110%; growth at 10 µM [34]: 103%; growth at 10 µM [35]: 99.2%; growth at 10 µM [36]: 97.8%; growth at 10 µM [37]: 100%; growth at 10 µM [38]: 112%; growth at 10 µM [39]: 112%; growth at 10 µM [40]: 99.1%

From ChEMBL document CHEMBL4715697, “Synthesis and biological activity of benzamide DNA minor groove binders” (2016)
